Values quoted from earlier work as cited in US11833157B2, “Precipitation resistant small molecule drug formulations” (Xeris Pharmaceuticals, Inc., priority 2017, dated 2023).

Test system: febrile seizures
Details: short term diazepam prophylaxis at times of fever; 39% without

Compound: CN1C(=O)CN=C(c2ccccc2)c2cc(Cl)ccc21 [diazepam]
- 18 month recurrence rate: 12%
